Converted amounts (≈) assume the structure as drawn.
Legend:
ovarian cancer cells = experiment: MTT assay, growth of ovarian cancer cells (FIG. 3A, 3B); type: cell-based; details: Homo sapiens, read-out: IC50, inhibiting growth of ovarian cancer cells
Method: (§1) Cells. Human cancer cell lines were obtained from American Type Culture Collection: HTB-9 (bladder), HeLa-S3 (cervix), DU145 (prostate), H460 (lung), MCF-7 (breast), K562 (leukocytes), HCT116 (colon), HepG2 (liver), U2OS (bone), T98G (brain), SK-MEL-5 (Skin) and OVCAR-3 (ovary). The cells were grown in following culture media: HeLa-53, DU145, MCF-7, Hep-G2 and T98G are in MEN (Earle's salts); HTB-9, H460, K562 and OVCAR-3 in RPMI-1640; HCT-116 and U2OS in McCoy-5A. They are supplemented with 10% fetal calf serum, glutamine and antibiotics, and incubated in an incubator with 5% CO2 humidified at 37° C.
(§2) MTT Assay. The procedure for MTT assay followed the method described by Carmichael et al. (1987) with modifications. […] The formazan (product of the reduction of tetrazolium by viable cells) formed and was dissolved with DMSO and the O.D. at 490 nm, and was measured by an ELISA reader. The MTT level of the cells before drug-treatment was also measured (T0). The % cell-growth (% G) is calculated as: % G=(TD−T0/TC−T0)×100(1), where TC or TD represents O.D. readings of control or drug-treated cells. When T0>TD, then the cytotoxicity (LC) expressed as % of the control is calculated as: % LC=(TD−T0/T0)×100(2).

[1] = test system: Fibronectin secretion from bladder carcinoma cells (HTB-9); experiment: Fibronectin secretion (Western blot), HTB-9 cells; type: cell-based, human; details: 10 ug/ml; for inhibition at 10 µg/mL: Homo sapiens
[2] = test system: Fibronectin secretion from liver HepG2 cells; experiment: Fibronectin secretion (Western blot), HepG2 cells; type: cell-based, human; details: 10 ug/ml; for inhibition at 10 µg/mL: Homo sapiens, HepG2, HepG2 cells
[3] = test system: Fibronectin secretion from ES2 cells; experiment: Fibronectin secretion (Western blot), ES2 cells; type: cell-based, human; details: 10 ug/ml; for inhibition at 10 µg/mL: Homo sapiens, ES-2, ES2 cells
Method: Inhibition of Fibronectin secretion is physiological and the determination of its quantity is based on the following criteria: • 1. Fibronectin is secreted from viable cells. Only cell with over 85% viable cells after drug-treatment are employed in these experiments. The viable cells were determined by MTT assay. • 2. For comparison, the immuno-band intensity from each samples are normalized with cell mass. The cell mass was determined by the MTT assay and is assigned as a MTT unit for each cell sample.
Cells: ES2 cells were grew in T-25 flask with RPMI 1640 medium over night before drug-treatment. Drug-treatment: cells cultures were replaced with fresh RPMI medium with Xanifolia-Y (10 ug/ml final concentration) or DMSO (as control) at 0 hour. At 1, 2, 4, 8 and 24 hour, aliquot of culture medium was taken out for Fibronectin determination. Fibronectin was determined by Western blot with monoclonal antibody (SIGMA) specific to human Fibronectin only.
Drug-treatment: cells cultures were replaced with fresh RPMI medium containing Xanifolia-Y (10 ug/ml final concentration) or DMSO (as control) at 0 hour. At 4 hours (A) or 8 hour (B), culture medium was replaced with fresh culture medium without drug. At 2, 4, 8 and 24 hour, aliquot of culture medium was taken out for Fibronectin determination. Fibronectin (FN) was determined by Western blot with monoclonal antibody (SIGMA) specific only to human Fibronectin.
(§3) Drug-treatment: cells cultures were replaced with fresh RPMI medium containing Xanifolia-Y (10 ug/ml final concentration) or DMSO (as control) at 0 hour. At 2, and 18 hour, aliquot of culture medium was taken out for Fibronectin determination (Western blot method). Cell viability at 18 hours was determined by MTT assay. Cultures were replaced with RPMI medium with MTT and incubated for an hour. The formation of formazan was dissolved in DMSO and OD at 570 nm was measured.
Cells and Drug-treatment: same as previous experiments. After 7 or 24 hours, aliquot of culture medium was taken out for Fibronectin determination (Western blot method). Cell viability at 24 hours was determined by MTT assay.
Cells: ES2 cells were grew in RPMI 1640 medium over night before drug-treatment. Drug-treatment: cells cultures were replaced with fresh RPMI medium containing DMSO (as control) [D]; Xanifolia-Y (10 ug/ml) [Y]; or Paclitaxel 10 or 50 ng/ml [T10, ro T50]. After 24 hours, aliquot of culture medium was taken out for Fibronectin determination (Western blot method). Cell viability at 24 hours was determined by MTT assay.
The amount of Fibronectin secreted by cells into medium was determined by Western blot assay. The amount of Fibronectin secreted per cells basis was determined by dividing the Western-band intensity with the MTT unit.
Western Blot: Spent culture medium (0.6 ml) was mixed with SDS sample buffer (0.2 ml), boiled for 3 minutes before loading to SDS gel. Samples (60 ul/lane) were applied to a 6% SDS gel and electrophoresis was conducted with 100 volts for 2 hours. Protein was transferred to a nitrocellulose paper electrophoretically (30 min at 100 volts). The Western blot was incubated with the first antibody (mouse anti-FN, specific to human FN, SIGMA F0916) and second antibody (Anti-mouse IgG AP conjugated, Promega S3721). The immunobands were developed with BCIP/NBT color development system (Promega S3771).

[4] = test system: Fibronectin secretion from lung carcinoma cells (H460); experiment: Fibronectin secretion (Western blot), H460 cells; type: cell-based, human
[5] = test system: Fibronectin secretion from brain glioblastoma T98G cells; experiment: Fibronectin secretion (Western blot), T98G cells; type: cell-based, human
[6] = test system: Fibronectin secretion from skin SK-Mel-5 cells; experiment: Fibronectin secretion (Western blot), SK-MEL-5 cells; type: cell-based, human
tumor growth = experiment: MTT anticancer activity of Y, X and hydrolysis products (FIG. 4C); type: cell-based; details: FIG. 4C; read-out: IC50, inhibits tumor growth / anticancer activity
Method: (§4) MTT Assay. The procedure for MTT assay followed the method described by Carmichael et al. (1987) with modifications. The cells were seeded into a 96-well plate at concentration of 10,000/well for HTB-9, HeLa, H460, HCT116, T98G and OVCAR-3), 15,000/well for DU145, MCF-7, HepG2 and U2OS), and 40,000/well for K562 for 24 hours before drug-treatment. The cells were then exposed to the drugs for 48 hours (72 hours for HepG2 and U2OS, and 96 hours for MCF-7). After the drug-treatment, MTT (0.5 mg/mL) was added to cultures and incubated for an hour. The formazan (product of the reduction of tetrazolium by viable cells) formed and was dissolved with DMSO and the O.D. at 490 nm, and was measured by an ELISA reader. The MTT level of the cells before drug-treatment was also measured (T0). The % cell-growth (% G) is calculated as: % G=(TD−T0/TC−T0)×100(1), where TC or TD represents O.D. readings of control or drug-treated cells. When T0>TD, then the cytotoxicity (LC) expressed as % of the control is calculated as: % LC=(TD−T0/T0)×100(2).
(A) Alkaline Hydrolysis of Xanifolia-Y: 20 mg of Xanifolia-Y was dissolved in 0.5 mL of 1M NaOH. The solution was incubated in an 80° C. water bath for 4 hours. It was cooled to room temperature before being neutralized with 0.5 mL 1 N HCl (adjusted pH to about 3). The mixture was extracted with 2 mL 1-butanol 3 times. The butanol fractions were collected and lyophilized. The hydrolyzed saponin was further purified with HPLC in a C-18 column eluted with 25% acetonitrile.
(B) Acid Hydrolysis of Xanifolia-Y: 15 mg Xanifolia-Y was dissolved in 1 mL of Methanol. 1 mL of 2N HCl was then added. The mixture was refluxed in an 80° C. water bath for 5 hours. The solution was then neutralized by adding 2 mL of 1N NaOH (to a final pH 3-4). The aglycone was then extracted with ethylacetate 3 mL×3. The extracts were collected and pooled. Further isolation of aglycone (sugar-removed Xanifolia-Y) was achieved by HPLC with isocratic elution of 80% acetonitrile.

[7] = test system: (bladder)TB9 cells / HTB-9; experiment: MTT assay bladder cells; type: cell-based, human; details: (bladder)TB9 cells
Method: as §1, §4

(Liver) HepG2 = experiment: MTT assay HepG2; type: cell-based, human
Method: as §1, §2

(Skin) SK-MELS = experiment: MTT assay SK-MEL-5; type: cell-based, human
Method: as §1, §2

(Prostate) DU145 = experiment: MTT assay DU145; type: cell-based, human
Method: as §1, §2

ES2(ovarian) cells = experiment: MTT assay ES2; type: cell-based, human; details: ES2 cells
Method: as §4
Methods: ES2 cells were exposed to (i) Xanifolia-Y with concentrations of 40, 20, 10, 5, 2.5, and 1.25 ug/ml; or (ii) Paclitaxel with concentrations of […]; or (iii) Combined Xanifolia-Y and Paclitaxel with concentrations of each drug in same order (for example, 40 ug/ml Y plus 10 ng/ml T; 20 ug/ml Y plus 5 ng/ml T, etc. please see FIG. 28). Cells growth under these conditions was determined by the MTT assay.
as §3

(Breast)MCF7 = experiment: MTT assay MCF7; type: cell-based, human
Method: as §1, §2

[8] = Homo sapiens, NCI-H460, H460 cells, 10 ug/ml

Compound | inhibition at 10 µg/mL [1] | inhibition at 10 µg/mL [2] | inhibition at 10 µg/mL [3] | inhibition at 10 µg/mL [4, 8] | inhibition at 10 µg/mL ([5]; Homo sapiens, 10 ug/ml) | inhibition at 10 µg/mL ([6]; Homo sapiens, 10 ug/ml) | further results
C/C=C(/C)C(=O)O[C@H]1[C@H](OC(C)=O)C(C)(C)CC2C3=CCC4[C@@]5(C)CC[C@H](O[C@@H]6OC(C(=O)OCCCC)[C@@H](O)C(O[C@@H]7O[C@@H](CO)C(O)C7O)C6O[C@@H]6OC(CO)[C@H](O)C(O)C6O)C(C)(C)C5CC[C@@]4(C)[C@]3(C)C[C@@H](O)[C@]21CO (stereo partly drawn) [X, 3-O-{[β-D-galactopyranosyl (1→2)]-[α-L-arabinofuranosyl (1→3)]-β-D-glucuronopyranosidebutyl ester}-21-O-acetyl-22-O-angeloyl-3β,16α,21β,22α,28-pentahydroxyolean-12-ene] | 38% | 42% | 39% | – | – | – | IC50 (ovarian cancer cells): 30 µg/mL (≈ 26.3 µM); inhibition at 20 µg/mL ([4]; Homo sapiens, NCI-H460, H460 cells, 20 ug/ml): 37%; inhibition at 20 µg/mL ([5]; Homo sapiens, T98G, 20 ug/ml): 52%; inhibition at 20 µg/mL ([6]; Homo sapiens, 20 ug/ml): 15%; IC50 (tumor growth): 6 µg/mL (≈ 5.26 µM)
C/C=C(/C)C(=O)O[C@H]1[C@H](OC(=O)/C(C)=C\C)[C@@]2(CO)C(CC1(C)C)C1=CCC3[C@@]4(C)CC[C@H](O[C@@H]5OC(C(=O)O)[C@@H](O)C(O[C@@H]6OC[C@@H](O)C(O)C6O)C5O[C@@H]5OC(CO)[C@H](O)C(O)C5O)C(C)(C)C4CC[C@@]3(C)[C@]1(C)C[C@H]2O (some centres unmarked) [Ba1] | 25% | 33% | 30% | 19% | 26% | 10% | –
C/C=C(/C)C(=O)O[C@@H]1C(O)[C@H](O[C@H]2[C@H](OC(C)=O)[C@@]3(CO)C(CC2(C)C)C2=CCC4[C@@]5(C)CC[C@H](O[C@@H]6OC(C(=O)O)[C@@H](O)[C@@H](O[C@@H]7O[C@@H](CO)[C@@H](O)C7O)C6O[C@@H]6OC(CO)[C@H](O)[C@@H](O)C6O)C(C)(C)C5CC[C@@]4(C)[C@]2(C)C[C@H]3O)OC(C)[C@@H]1OC(=O)/C(C)=C\C (stereo partly drawn) [Xanifolia Y1, 3-O-[β-D-galactopyranosyl (1→2)]-α-L-arabinofuranosyl (1→3)-β-D-glucuronopyranosyl-21-O-(3,4-diangeloyl)-α-L-rhamnophyranosyl-22-O-acetyl-3β,16α, 21β, 22α, 28-pentahydroxyolean-12-ene] | 50% | 33% | 41% | 13% | 40% | 10% | –
C/C=C(/C)C(=O)O[C@H]1[C@H](OC(=O)C(C)C)[C@@]2(CO)C(CC1(C)C)C1=CCC3[C@@]4(C)CC[C@H](O[C@@H]5OC(C(=O)O)[C@@H](O)C(O[C@@H]6O[C@@H](CO)C(O)C6O)C5O[C@@H]5OC(CO)[C@H](O)C(O)C5O)C(C)(C)C4CC[C@@]3(C)[C@]1(C)[C@@H](O)[C@H]2O (stereo partly drawn) [Xanifolia Y0, 3-O-[β-D-galactopyranosyl(1→2)]-α-L-arabinofuranosyl(1→3)-β-D-glucuronopyranosyl-21-O-angeloyl, 22-O-(2-methylpropanoyl)-3β, 15α, 16α, 21β, 22α, 28-hexahydroxyolean-12-ene] | 32% | 40% | 34% | 22% | 22% | 27% | –
CC=C(C)C(=O)OC1C(OC(=O)C(C)=CC)C23C(O)CC4(C)C5(C)CCC6C(C)(C)C(OC7OC(C(=O)O)C(O)C(OC8OC(CO)C(O)C(O)C8OC8OC(C)C(O)C(O)C8OC8OC(C)C(O)C(O)C8O)C7OC7OC(CO)C(O)C(O)C7O)CCC6(C)C5CCC4(OC2O)C3CC1(C)C (centres unmarked) [Mb5] | – | – | – | – | – | – | IC50 [7]: 6.5 µg/mL (≈ 4.44 µM); % inhibition of Fibronectin secretion [1]: 28%; % inhibition of Fibronectin secretion ([2]; HepG2 cells): 35%; IC50 ((Liver) HepG2): 6.5 µg/mL (≈ 4.44 µM); % inhibition of Fibronectin secretion ([3]; ES2 cells): 35%; % inhibition of Fibronectin secretion ([4]; H460 cells, 10 ug/ml): 25%; % inhibition of Fibronectin secretion ([5]; 10 ug/ml): 33%; IC50 ((Skin) SK-MELS): 25 µg/mL (≈ 17.1 µM); IC50 ((Prostate) DU145): 7.6 µg/mL (≈ 5.19 µM); IC50 (ES2(ovarian) cells): 6.5 µg/mL (≈ 4.44 µM); IC50 ((Breast)MCF7): 11 µg/mL (≈ 7.52 µM); % inhibition of Fibronectin secretion ([6]; 10 ug/ml): 15%

Source: patent US10213451B2, “Methods and compounds for modulating the secretion or expression of adhesion proteins or angiopoietins of cells” (PACIFIC ARROW LIMITED, priority 2004, dated 2019)
